{"source": "ChEMBL document CHEMBL4130376", "about": "“Discovery of methylsulfonyl indazoles as potent and orally active respiratory syncytial Virus(RSV) fusion inhibitors” (Eur J Med Chem, 2017)", "key": {"[1]": {"assay": "Metabolic stability in mouse liver microsomes by high-throughput screening based assay", "format": "ADME, microsome", "conditions": "read-out: Stability"}, "[2]": {"assay": "Metabolic stability in rat liver microsomes by high-throughput screening based assay", "format": "ADME, microsome", "conditions": "read-out: Stability"}, "[3]": {"assay": "Effective permeability of the compound by PAMPA", "format": "ADME", "conditions": "read-out: Peff"}, "[4]": {"assay": "Metabolic stability in human liver microsomes by high-throughput screening based assay", "format": "ADME, microsome", "conditions": "read-out: Stability"}, "[5]": {"assay": "Plasma clearance in ICR mouse at 2 mg/kg, iv", "format": "ADME, organism-based"}, "[6]": {"assay": "Half life in ICR mouse at 12.5 mg/kg, po", "format": "ADME, organism-based", "conditions": "in vivo"}, "[7]": {"assay": "Half life in ICR mouse at 2 mg/kg, iv", "format": "ADME, organism-based", "conditions": "in vivo"}, "[8]": {"assay": "AUC (0 to 24 hrs) in ICR mouse at 2 mg/kg, iv", "format": "ADME, organism-based", "parameters": "time < 24 hr, dose 2 mg/kg, route intravenous", "conditions": "ICR, in vivo"}, "[9]": {"assay": "Cmax in ICR mouse at 2 mg/kg, iv", "format": "ADME, organism-based", "parameters": "dose 2 mg/kg, route intravenous", "conditions": "in vivo"}, "[10]": {"assay": "Tmax in ICR mouse at 12.5 mg/kg, po", "format": "ADME, organism-based", "conditions": "in vivo"}, "[11]": {"assay": "Oral bioavailability in ICR mouse at 12.5 mg/kg", "format": "ADME, organism-based", "conditions": "in vivo"}, "[12]": {"assay": "Cmax in ICR mouse at 12.5 mg/kg, po", "format": "ADME, organism-based", "parameters": "dose 12.5 mg/kg, route oral", "conditions": "in vivo"}, "[13]": {"assay": "Volume of distribution at steady state in ICR mouse at 2 mg/kg, iv", "format": "ADME, organism-based", "conditions": "in vivo, read-out: Vdss"}, "[14]": {"assay": "AUC (0 to 24 hrs) in ICR mouse at 12.5 mg/kg, po", "format": "ADME, organism-based", "parameters": "time < 24 hr, dose 12.5 mg/kg, route oral", "conditions": "in vivo"}, "Mus musculus [15]": {"test_system": "Mus musculus", "assay": "AUC (0 to 24 hrs) in ICR mouse at 12.2 mg/kg, po", "format": "ADME, organism-based", "parameters": "dose 12.2 mg/kg, time < 24 hr, route oral", "conditions": "in vivo"}, "[16]": {"assay": "Volume of distribution at steady state in ICR mouse at 1 mg/kg, iv", "format": "ADME, organism-based", "conditions": "in vivo, read-out: Vdss"}, "[17]": {"assay": "Cmax in ICR mouse at 12.2 mg/kg, po", "format": "ADME, organism-based", "parameters": "dose 12.2 mg/kg, route oral", "conditions": "in vivo"}, "Mus musculus [18]": {"test_system": "Mus musculus", "assay": "AUC (0 to 24 hrs) in ICR mouse at 1 mg/kg, iv", "format": "ADME, organism-based", "parameters": "time < 24 hr, dose 1 mg/kg, route intravenous", "conditions": "in vivo"}, "[19]": {"assay": "Tmax in ICR mouse at 12.2 mg/kg, po", "format": "ADME, organism-based", "conditions": "in vivo"}, "Mus musculus [20]": {"test_system": "Mus musculus", "assay": "Oral bioavailability in ICR mouse at 12.2 mg/kg", "format": "ADME, organism-based", "conditions": "in vivo"}, "[21]": {"assay": "Cmax in ICR mouse at 1 mg/kg, iv", "format": "ADME, organism-based", "parameters": "dose 1 mg/kg, route intravenous", "conditions": "in vivo"}, "[22]": {"assay": "Half life in ICR mouse at 10 mg/kg, po", "format": "ADME, organism-based", "conditions": "in vivo"}, "[23]": {"assay": "Oral bioavailability in ICR mouse at 10 mg/kg", "format": "ADME, organism-based", "conditions": "in vivo"}, "[24]": {"assay": "AUC (0 to 24 hrs) in ICR mouse at 10 mg/kg, po", "format": "ADME, organism-based", "parameters": "time < 24 hr, dose 10 mg/kg, route oral", "conditions": "in vivo"}, "[25]": {"assay": "Tmax in ICR mouse at 10 mg/kg, po", "format": "ADME, organism-based", "conditions": "in vivo"}, "[26]": {"assay": "Cmax in ICR mouse at 10 mg/kg, po", "format": "ADME, organism-based", "parameters": "dose 10 mg/kg, route oral", "conditions": "in vivo"}}}
{"smiles": "CS(=O)(=O)c1nn(Cc2nc3cc(Cl)ccc3n2CCCCC(F)(F)F)c2cnccc12", "values": [{"measurement": "CLhep predicted", "setting": "[1]", "result": 22.7, "unit": "mL/min/kg"}, {"measurement": "CLhep predicted", "setting": "[2]", "result": 6.15, "unit": "mL/min/kg"}, {"measurement": "Papp", "setting": "[3]", "result": 0.95, "unit": "×10⁻⁶ cm/s"}, {"measurement": "CLhep predicted", "setting": "[4]", "result": 4.57, "unit": "mL/min/kg"}]}
{"smiles": "CS(=O)(=O)c1nn(Cc2nc3cc(Cl)ccc3n2CCC(O)C(F)(F)F)c2cnccc12", "note": "(stereo not given)", "values": [{"measurement": "CLhep predicted", "setting": "[1]", "result": 26.5, "unit": "mL/min/kg"}, {"measurement": "CLhep predicted", "setting": "[2]", "result": 18, "unit": "mL/min/kg"}, {"measurement": "Papp", "setting": "[3]", "result": 4.29, "unit": "×10⁻⁶ cm/s"}, {"measurement": "CLhep predicted", "setting": "[4]", "result": 4.51, "unit": "mL/min/kg"}]}
{"smiles": "CS(=O)(=O)c1nn(Cc2nc3cc(Cl)ccc3n2CCCO)c2cnccc12", "values": [{"measurement": "clearance", "setting": "[5]", "result": 37.4, "unit": "mL/min/kg"}, {"measurement": "half-life", "setting": "[6]", "result": 396, "unit": "min"}, {"measurement": "CLhep predicted", "setting": "[1]", "result": 15.3, "unit": "mL/min/kg"}, {"measurement": "half-life", "setting": "[7]", "result": 243, "unit": "min"}, {"measurement": "AUC(0-t) at 24 h", "setting": "[8]", "result": 954, "unit": "ng·h/mL"}, {"measurement": "Cmax", "setting": "[9]", "result": 1730, "unit": "ng/mL"}, {"measurement": "CLhep predicted", "setting": "[2]", "result": 14.9, "unit": "mL/min/kg"}, {"measurement": "Tmax", "setting": "[10]", "result": 30, "unit": "min"}, {"measurement": "bioavailability", "setting": "[11]", "result": 17.1, "unit": "%"}, {"measurement": "Cmax", "setting": "[12]", "result": 155, "unit": "ng/mL"}, {"measurement": "Vd", "setting": "[13]", "result": 8.3, "unit": "L/kg"}, {"measurement": "Papp", "setting": "[3]", "result": 3.47, "unit": "×10⁻⁶ cm/s"}, {"measurement": "AUC(0-t) at 24 h", "setting": "[14]", "result": 891, "unit": "ng·h/mL"}, {"measurement": "CLhep predicted", "setting": "[4]", "result": 2.96, "unit": "mL/min/kg"}]}
{"smiles": "CS(=O)(=O)CCc1c(CN2C(=O)C3(CC3)c3ccncc32)nc2cc(Cl)ccn12", "values": [{"measurement": "CLhep predicted", "setting": "[1]", "result": 63.5, "unit": "mL/min/kg"}, {"measurement": "CLhep predicted", "setting": "[4]", "result": 2.6, "unit": "mL/min/kg"}]}
{"smiles": "CS(=O)(=O)CCCc1c(CN2C(=O)C3(CC3)c3ccncc32)nc2cc(Cl)ccn12", "values": [{"measurement": "CLhep predicted", "setting": "[1]", "result": 83.3, "unit": "mL/min/kg"}, {"measurement": "CLhep predicted", "setting": "[4]", "result": 11.7, "unit": "mL/min/kg"}]}
{"smiles": "CS(=O)(=O)CCn1c(Cn2cc(S(C)(=O)=O)c3ccccc32)nc2ccccc21", "values": [{"measurement": "CLhep predicted", "setting": "[1]", "result": 19.7, "unit": "mL/min/kg"}, {"measurement": "Papp", "setting": "[3]", "result": 4.87, "unit": "×10⁻⁶ cm/s"}, {"measurement": "CLhep predicted", "setting": "[4]", "result": "7.33 to 9", "unit": "mL/min/kg"}]}
{"smiles": "CS(=O)(=O)c1nn(Cc2nc3cc(Cl)ccc3n2CC2COC2)c2cnccc12", "values": [{"measurement": "AUC", "setting": "Mus musculus [15]", "result": 989, "unit": "ng·h/mL"}, {"measurement": "CLhep predicted", "setting": "[1]", "result": 9, "unit": "mL/min/kg"}, {"measurement": "Vd", "setting": "[16]", "result": 0.88, "unit": "L/kg"}, {"measurement": "Cmax", "setting": "[17]", "result": 972, "unit": "ng/mL"}, {"measurement": "CLhep predicted", "setting": "[2]", "result": 19.8, "unit": "mL/min/kg"}, {"measurement": "AUC", "setting": "Mus musculus [18]", "result": 2870, "unit": "ng·h/mL"}, {"measurement": "Tmax", "setting": "[19]", "result": 30, "unit": "min"}, {"measurement": "F", "setting": "Mus musculus [20]", "result": 23.8, "unit": "%"}, {"measurement": "Papp", "setting": "[3]", "result": 3.22, "unit": "×10⁻⁶ cm/s"}, {"measurement": "Cmax", "setting": "[21]", "result": 1270, "unit": "ng/mL"}, {"measurement": "CLhep predicted", "setting": "[4]", "result": 3.9, "unit": "mL/min/kg"}]}
{"smiles": "CS(=O)(=O)CCn1c(Cn2cc(S(C)(=O)=O)c3ccccc32)nc2cc(Cl)ccc21", "values": [{"measurement": "Papp", "setting": "[3]", "result": 2.3, "unit": "×10⁻⁶ cm/s"}]}
{"smiles": "CC(C)(O)CCCn1c(Cn2nc(S(C)(=O)=O)c3ccncc32)nc2cc(Cl)ccc21", "values": [{"measurement": "clearance", "setting": "[5]", "result": 60.4, "unit": "mL/min/kg"}, {"measurement": "CLhep predicted", "setting": "[1]", "result": 20.7, "unit": "mL/min/kg"}, {"measurement": "half-life", "setting": "[7]", "result": 14.5, "unit": "min"}, {"measurement": "AUC(0-t) at 24 h", "setting": "[8]", "result": 552, "unit": "ng·h/mL"}, {"measurement": "Cmax", "setting": "[9]", "result": 1300, "unit": "ng/mL"}, {"measurement": "CLhep predicted", "setting": "[2]", "result": 2.96, "unit": "mL/min/kg"}, {"measurement": "half-life", "setting": "[22]", "result": 307, "unit": "min"}, {"measurement": "bioavailability", "setting": "[23]", "result": 29.3, "unit": "%"}, {"measurement": "AUC(0-t) at 24 h", "setting": "[24]", "result": 809, "unit": "ng·h/mL"}, {"measurement": "Vd", "setting": "[13]", "result": 1.09, "unit": "L/kg"}, {"measurement": "Tmax", "setting": "[25]", "result": 15, "unit": "min"}, {"measurement": "Papp", "setting": "[3]", "result": 2.57, "unit": "×10⁻⁶ cm/s"}, {"measurement": "Cmax", "setting": "[26]", "result": 340, "unit": "ng/mL"}, {"measurement": "CLhep predicted", "setting": "[4]", "result": 5.17, "unit": "mL/min/kg"}]}
